# Data from patent US12553041B2, “Formulations and doses of pegylated uricase” (Cartesian Therapeutics Inc., priority 2019, dated 2026).
# Values joined by “and” are separate entries in the source; they are usually repeats but may differ in a detail not shown here. Identical values can stand only once. Like-named read-outs stand apart in the source and are kept apart here.
# Key:
# [1] = system: patients with gout; settings: cited from earlier work; for Patients with gout flares requiring treatment in a month: colchicine prophylaxis; for Flares per patient month (flare frequency): worked out from literature data
# [2] = system: patients with hyperuricemia and gout; settings: cited from earlier work; for Subjects that required treatment for at least one gout flare: first 8 weeks, with gout flare prophylaxis; for Flares per patient month (flare frequency): worked out from literature data
# [3] = system: patients with serum uric acid levels greater than 6 mg/dl; assay: Phase 1b clinical trial, SVP Rapamycin alone, pegsiticase alone or SEL 212
# Experimental: The Phase 1b clinical trial enrolled 63 patients with serum uric acid levels greater than 6 mg/dl separated into 11 cohorts. A single intravenous infusion of SVP Rapamycin alone at the following ascending dose levels was administered to four cohorts in ascending order. Each cohort consisted of seven patients and were designated as follows: Cohort #1 (0.03 mg/kg), Cohort #3 (0.1 mg/kg), Cohort #5 (0.3 mg/kg) and Cohort #7 (0.5 mg/kg) collectively the SVP Rapamycin Cohorts. After a cohort of the SVP-Rapamycin alone had successfully and safely been dosed the corresponding dose level of SVP Rapamycin was combined with a fixed dose of pegsiticase (0.4 mg/kg). The combination was co-administered sequentially as a single intravenous infusion, with the SVP Rapamycin infusion preceding the pegsiticase infusion. The cohort designation is as follows for the six cohorts (5 patients per cohort), which were Cohort #2 (SVP Rapamycin 0.03 mg/kg+0.4 mg/kg pegsiticase), Cohort #4 (SVP Rapamycin 0.1 mg/kg+0.4 mg/kg pegsiticase), Cohort #6 (SVP Rapamycin 0.3 mg/kg+0.4 mg/kg pegsiticase), Cohort #10 (0.4 mg/kg pegsiticase+0.03 mg/kg SVP Rapamycin separated by 48 hours), Cohort #12 (SVP Rapamycin 0.15 mg/kg+0.4 mg/kg pegsiticase) and Cohort #14 (SVP Rapamycin 0.1 mg/kg+0.4 mg/kg pegsiticase) collectively the SEL 212 Cohorts. In Cohort #9 a fixed amount of pegsiticase alone at a dose level of 0.4 mg/kg was administered to five patients, which is referred to as the Pegsiticase Cohort. […] The subjects were monitored during a 30 day period post infusion with visits occurring on day 7, 14,21 and the end of trial visit on day 30. Blood and serum of each patient was evaluated for serum uric acid, ADAs (specifically anti-PEG, anti-uricase and anti-pegsiticase) and safety parameters. The primary objective of the Phase 1b clinical trial was to evaluate the safety and tolerability of SVP Rapamycin alone and in combination with a fixed dose of pegsiticase. A secondary clinical objective was to evaluate the ability of SVP Rapamycin co-administered with pegsiticase to reduce serum uric acid levels and mitigate the formation of uricase specific ADAs when compared to administration of pegsiticase alone.
# [4] = system: nonhuman primates; assay: Proof of concept study in nonhuman primates, uricase specific ADAs; assay type: in vivo; settings: pegsiticase alone, five monthly doses; by the end of the study
# Experimental: A preclinical study to evaluate the ability of SVP Rapamycin to mitigate the formation of uricase specific ADAs in nonhuman primates was also conducted. As depicted in FIG. 3, during the study: • pegsiticase was administered alone, referred to as the Empty Nanoparticle Group, or • was co-administered with one of two dose levels of SVP Rapamycin, referred to as the SVP Rapamycin 0.1× and SVP Rapamycin 1× Groups, respectively. The SVP Rapamycin 0.1× Group received a dose level of SVP Rapamycin of 0.3 mg/kg and the SVP Rapamycin 1× Group received a dose level of SVP Rapamycin of 3 mg/kg.
# The Empty Nanoparticle Group received three monthly doses of pegsiticase and each of the SVP Rapamycin 0.1× Group and SVP Rapamycin 1× Group received three monthly doses of pegsiticase co-administered with SVP Rapamycin. All groups then received two monthly doses of pegsiticase alone. The SVP Rapamycin 0.1× Group received one tenth of the dose administered in the SVP Rapamycin 1× Group.
# [5] = system: subjects with elevated serum uric acid levels greater than 6 mg/dl; assay: Phase 1a clinical trial, single intravenous infusion of pegsiticase alone; assay type: in vivo
# Experimental: The Phase 1a clinical trial for SEL 212 was an ascending dose trial of pegsiticase alone in 22 subjects with elevated serum uric acid levels greater than 6 mg/dl who were separated into five cohorts. Each cohort received a single intravenous infusion of pegsiticase at the following dose levels of 0.1 mg/kg for Cohort #1, 0.2 mg/kg for Cohort #2, 0.4 mg/kg for Cohort #3, 0.8 mg/kg for Cohort #4 and 1.2 mg/kg for Cohort #5. Dosing began with the lowest dose and only after an entire cohort was safely dosed was the next cohort started.
# FIG. 4 depicts average serum uric acid levels of the Phase 1a clinical trial's five cohorts tested at different measurement intervals (Day 7, 14, 21 and 30) during the course of the 30 day period following the single intravenous infusion of pegsiticase at the outset of the trial.
# The serum uric acid levels were measured at baseline and days seven, 14, 21 and 30 and uricase specific ADA levels at baseline and days seven, 14 and 30 following a single intravenous injection of pegsiticase. Uricase specific ADA levels at day 21 in the Phase 1a clinical trial were not measured. Based on the results from the Phase 1a clinical trial, it was observed that pegsiticase at a tolerated dose is capable of achieving and maintaining a reduction of serum uric acid below the target of 6 mg/dl for a 30 day period in the absence of inhibitory uricase specific ADAs.
# [6] = system: mice genetically deficient in endogenous uricase; assay: Proof of concept study in uricase deficient mice; assay type: in vivo
# Experimental: A pharmacology study in mice that were genetically deficient in endogenous uricase was conducted. The study evaluated the efficacy of a dose regimen consisting of three immunizations with SEL 212 followed by doses of pegsiticase alone in preventing the formation of ADAs to pegsiticase. The treatment period consisted of the first 14 days of the study. In the study, mice were separated into three treatment groups. During the treatment period: • the first group, referred to as the Untreated Group, received no treatment; • the second group, referred to as the Pegsiticase Group, was treated with pegsiticase alone; and • the third group, referred to as the SVP Rapamycin+Pegsiticase Group, was treated with SVP Rapamycin co administered with pegsiticase.
# The Pegsiticase Group and SVP Rapamycin+Pegsiticase Group were treated on days zero, seven and 14 of the treatment period. Each group was then treated with pegsiticase alone on days 35 and 42 of the study, or the challenge period. Uricase specific ADA levels were recorded to determine the formation of ADAs to pegsiticase. Uric acid levels were measured to determine effectiveness of SVP Rapamycin co administered with pegsiticase in lowering uric acid levels below 6 mg/dl, which is the treatment target for gout patients.
# [7] = system: uricase activity; settings: human, in vivo
# Experimental: Methods: Patients with symptomatic gout (≥1 tophus, gout flare within 6 months or gouty arthropathy) and elevated SUA ≥6 mg/dL were treated with fixed doses of the pegylated uricase (0.2 mg/kg) in combination with SEL-110 (0.1 and 0.15 mg/kg), or the pegylated uricase (0.2 or 0.4 mg/kg) alone as a control. Patients were infused in 28-day cycles up to 5 times. Safety, tolerability, sUA, ADAs, and uricase activity were monitored.
# Uricase activity was measured fluorometrically. As uricase converts uric acid into allantoin and H2O2, horseradish peroxidase was added and reached with H2O2 and a fluorescent probe to yield a quantifiable signal.
# [8] = system: anti-uricase IgG; assay: Anti-uricase antibody titer by sandwich ELISA, monthly dosing in symptomatic gout patients; assay type: in vivo, human
# Experimental: Safety, tolerability, sUA, ADAs, and uricase activity were monitored.
# In this example, “responder” indicates an individual with serum uric acid values […] and serum uric acid ≤1 mg/dL on day 21 (stopping rule). In this example, a “non-responder” is a subject having serum uric acid levels ≥6 mg/dL at any time during a 28 day dosing cycle. The “maximum titer” is the maximum titer observed during a 28 day dosing cycle.
# Anti-uricase antibodies were detected using a sandwich ELISA. […] Uricase activity was measured fluorometrically.
# [9] = system: patients with refractory gout; settings: cited from earlier work; for Flares per patient month (flare frequency): worked out from literature data; for Mean uric acid levels at four weeks: monthly dosing
molecule,measurement,setting,value
"O=C(O)CSc1nnc(Br)n1-c1ccc(C2CC2)c2ccccc12 [Lesinurad, lesinurad]",Patients with gout flares requiring treatment in a month,"[1]; 200 mg daily, out of 46 patients",10
same,Time of efficacy (area under curve of mean AIN levels over time),[1]; 200 mg/day,158.5
same,Flares per patient month (flare frequency),[1]; 200 mg/day,0.22 flares per patient month
same,Patients with gout flares requiring treatment in a month,"[1]; 400 mg daily, out of 42 patients",13
same,Time of efficacy (area under curve of mean AIN levels over time),[1]; 400 mg/day,165.8
same,Flares per patient month (flare frequency),[1]; 400 mg/day,0.31 flares per patient month
same,Patients with gout flares requiring treatment in a month,"[1]; 600 mg daily, out of 48 patients",15
same,Time of efficacy (area under curve of mean AIN levels over time),[1]; 600 mg/day,167.5
same,Flares per patient month (flare frequency),[1]; 600 mg/day,0.31 flares per patient month
"Cc1nc(-c2ccc(OCC(C)C)c(C#N)c2)sc1C(=O)O [Febuxostat, febuxostat]",Subjects that required treatment for at least one gout flare,"[2]; 80 mg/day, out of 255 subjects",55
same,Flares per patient month (flare frequency),[2]; 80 mg/day,0.22 flares per patient month
same,Flares per patient month (flare frequency),"[2]; 80 mg/day, listed as febuxostat",at least 0.22 flares per patient month
same,Subjects that required treatment for at least one gout flare,"[2]; 120 mg/day, out of 250 subjects",90
same,Flares per patient month (flare frequency),[2]; 120 mg/day,0.36 flares per patient month
same,Flares per patient month (flare frequency),"[2]; 120 mg/day, listed as febuxostat",≥ 0.36 flares per patient month
Recombinant Pegylated Candida Urate Oxidase [pegsiticase],Subjects that returned to baseline serum uric acid levels by day 30,[3]; Cohort #9: pegsiticase alone 0.4 mg/kg,four of the five
same,Enzyme activity past day 14,"[3]; pegsiticase alone 0.4 mg/kg, Cohort #3 Phase 1a and Cohort #9 Phase 1b",loose the enzyme activity
same,Uricase specific ADA formation,"[3]; pegsiticase alone 0.4 mg/kg, Cohort #3 Phase 1a and Cohort #9 Phase 1b, resulting in return to baseline serum uric acid",uricase specific ADA formation at day 14
same,"Serum uric acid, initial control","[3]; pegsiticase alone 0.4 mg/kg, Cohort #3 Phase 1a and Cohort #9 Phase 1b, up to day 14",below 6 mg/dL
same,Uricase specific ADAs,[4],high levels of uricase specific ADAs
same,Flare in 1st month,"[5]; individual subject with history of gout, SEL-037 0.8 mg/kg",no
same,Flare in 1st month,"[5]; individual subjects with history of gout, SEL-037 0.1 mg/kg, 0.1 mg/kg",no and yes (2×) and yes (positive for
same,Flare in 1st month,"[5]; individual subjects with history of gout, SEL-037 0.2 mg/kg, 0.2 mg/kg","no and yes (mild gout, right"
same,Subjects with a history of gout with signs of gout flare in the first month,"[5]; pegsiticase alone, 4 out of 7 patients",57%
same,Onset of reduction of average serum uric acid levels,"[5]; single IV infusion, 0.1 to 1.2 mg/kg",within hours
same,Serious adverse events and tolerability,"[5]; single IV infusion, five dose levels 0.1 to 1.2 mg/kg",no serious adverse events and was well tolerated
same,Uricase specific ADAs,"[5]; single IV infusion, varying levels",induced uricase specific ADAs in all subjects
same,Serum uric acid maintained,"[5]; tolerated dose, 30 day period, in the absence of inhibitory uricase specific ADAs",< 6 mg/dL
same,Uric acid levels,[6]; after the first dose in the treatment period,below 6 mg/dl
same,Uric acid levels,[6]; subsequent doses in the treatment period and challenge period,> 6 mg/dL
same,Uricase specific ADA levels (antibody formation),"[6]; uricase deficient mice, treatment period (days 0, 7, 14) and challenge period (days 35, 42)",developed uricase specific ADAs
same,Average uricase activity AUC,[7],3437 mU/dL*wk
same,Treatment periods with maximum antibody titers <1080,"[8]; 28-day cycles, SEL-212 111/133, pegylated uricase alone 1/7 treatment periods",14.3%
same,Anti-uricase antibodies,"[8]; pegylated uricase alone, discontinued from the study within the first two months",developed high titer antibodies
pegloticase [KRYSTEXXA®],Treated subjects that developed ADAs,[9]; all KRYSTEXXA-treated subjects,89%
same,Flares per patient over the first 3 months,"[9]; biweekly pegloticase, 85 patients",2.3 flares per patient
same,Time of efficacy (area under curve of mean AIN levels over time),"[9]; biweekly, nonresponders",Nonresponders-84.35
same,Time of efficacy (area under curve of mean AIN levels over time),"[9]; biweekly, responders",Responders-26.6
same,Flares per patient month (flare frequency),[9]; biweekly,0.77 flares per patient month
same,Subjects classified as non-responders,[9]; monthly dosing cohorts,65%
same,Subjects classified as responders (uric acid below 6 mg/dl for 80% of the time at months three and six),[9]; monthly dosing cohorts,35%
same,Mean uric acid levels at four weeks,[9]; non-responders,above 6 mg/dl
same,Mean uric acid levels at four weeks,[9]; responders,above 4 mg/dl
same,Flares per patient over the first 3 months,"[9]; monthly pegloticase, 84 patients",2.7 flares per patient
same,Time of efficacy (area under curve of mean AIN levels over time),"[9]; monthly, nonresponders",Nonresponders-99.75
same,Time of efficacy (area under curve of mean AIN levels over time),"[9]; monthly, responders",Responders-53.55
same,Flares per patient month (flare frequency),"[9]; monthly, listed as Pegloticase",0.90 flares per patient month
same,Flares per patient month (flare frequency),"[9]; monthly, listed as pegloticase",0.9 flares per patient month
